# Results as given in patent US20240174690A1, “ANNULATED 2-AMINO-3-CYANO THIOPHENES AND DERIVATIVES FOR THE TREATMENT OF CANCER” (BOEHRINGER INGELHEIM INTERNATIONAL GMBH, priority 2021, published 2024).
# Columns and labels:
# [1] = Plasma protein binding assay (PPB), equilibrium dialysis, 10% FCS in PBS; assay type: in vitro ADME; details: bovine, read-out: PPB 10% FCS (% fu)
# Protocol: Binding of test compounds to plasma was determined using equilibrium dialysis (ED) and quantitative mass spectrometry interfaced with liquid chromatography (LC-MS). In brief, ED was performed with dialysis devices consisting of two chambers separated by a semipermeable membrane with a molecular weight cut-off of 5-10 kg/mol. One chamber was filled with 10% FCS in PBS containing 1-10 μmol/L test compound and the other chamber was filled with phosphate-buffer saline (PBS) with or without dextran. The dialysis chamber was incubated for 3-5 hours at 37° C. After incubation, protein was precipitated from aliquots of each chamber and the concentration of test compound in the supernatant of the plasma-containing compartment (Cserum) and of the buffer-containing compartment (Cbuffer) was determined by LC-MS. The fraction of unbound test compound (not bound to plasma) (fu) was calculated according to the following equation: […]
# LOVO cells = assay: LOVO CTG proliferation assay (120 h) (CRC, G13D); assay type: cell-based; details: Homo sapiens, CTG 120 h
# Protocol: LOVO CTG Proliferation Assay (120 h) (CRC, G13D)
# LOVO cells (ATCC CCL-229) are dispensed into 384-well plates, flat and clear bottom (Greiner, PNr. 781091) at a density of 1000 cells per well in 60 μL DMEM (Sigma D6429)+10% Fetal Calf Serum (HyClone, PNr.: SH30084.03) and incubated at 37° C. in a CO2 incubator overnight. The next day, compounds (10 mM stock in DMSO) are added with the ECHO acoustic liquid handler system (Beckman Coulter), including DMSO controls. Plates are incubated for 120 h, and cell viability is measured using CellTiter-Glo luminescent cell viability reagent (Promega product code G7570). Viability (stated as percent of control) is defined as relative luminescence units RLU of each well divided by the RLU of cells in DMSO controls. IC50 values are determined from viability measurements by non-linear regression using a four-parameter model.
fraction unbound [1],IC50 (LOVO cells) [nM],Structure (SMILES)
0.41,3680,C[C@H](Oc1cc(N2CC[C@@H](O)C2)nc(-c2noc3c2CCC[C@@]32CCCc3sc(N)c(C#N)c32)n1)[C@@H]1CCCN1C [II-66]
0.23,49,C[C@H](Oc1cc(C2=CCOCC2)nc(-c2noc3c2CCC[C@@]32CCCc3sc(N)c(C#N)c32)n1)[C@@H]1CCCN1C [II-67]
–,286,C[C@H](Oc1cc(-c2ccn(-c3ccsc3)n2)nc(-c2noc3c2CCC[C@@]32CCCc3sc(N)c(C#N)c32)n1)[C@@H]1CCCN1C [II-84]
0.07,–,Cc1nc(-c2cc(O[C@@H](C)[C@@H]3CCCN3C)nc(-c3noc4c3CCC[C@@]43CCCc4sc(N)c(C#N)c43)n2)cs1 [II-103]
0.18,–,C[C@H](Oc1cc(-c2ccn3ncnc3c2)nc(-c2noc3c2CCC[C@@]32CCCc3sc(N)c(C#N)c32)n1)[C@@H]1CCCN1C [II-104]
0.43,–,C[C@H](Oc1cc(-c2cn(C3CCOCC3)nn2)nc(-c2noc3c2CCC[C@@]32CCCc3sc(N)c(C#N)c32)n1)[C@@H]1CCCN1C [II-115]

# The remaining lines, values behind:
Structure (SMILES),fraction unbound [1],IC50 (LOVO cells) [nM]
C[C@H](Oc1cc(N2C[C@H](C)N[C@@H](C)C2)nc(-c2onc3c2CCC[C@@]32CCCc3sc(N)c(C#N)c32)n1)[C@@H]1CCCN1C [I-6],0.94,1220
C[C@H]1CN(C)CCCN1c1cc(N2CCN(C)CC2)nc(-c2onc3c2CCC[C@@]32CCCc3sc(N)c(C#N)c32)n1 [I-7],0.36,2810
C[C@H](Oc1cc(N2CCN3CCC3C2)nc(-c2onc3c2CCC[C@@]32CCCc3sc(N)c(C#N)c32)n1)[C@@H]1CCCN1C (stereo partly shown) [I-9],0.8,649
C[C@H](Oc1cc(N2CCNCC23CCOC3)nc(-c2onc3c2CCC[C@@]32CCCc3sc(N)c(C#N)c32)n1)[C@@H]1CCCN1C (stereo partly shown) [I-10],0.7,–
C[C@H](Oc1cc(N2CC[C@H](N(C)C)C2)nc(-c2onc3c2CCC[C@@]32CCCc3sc(N)c(C#N)c32)n1)[C@@H]1CCCN1C [I-11],0.33,1710
C[C@H](Oc1cc(N2CCNC[C@]23CCOC3)nc(-c2noc3c2CCC[C@@]32CCCc3sc(N)c(C#N)c32)n1)[C@@H]1CCCN1C [II-50],0.38,1630
C[C@H](Oc1cc(N2CCNC[C@@]23CCOC3)nc(-c2noc3c2CCC[C@@]32CCCc3sc(N)c(C#N)c32)n1)[C@@H]1CCCN1C [II-51],0.39,772
C[C@H](Oc1cc(N2CCNC3(CC3)C2)nc(-c2noc3c2CCC[C@@]32CCCc3sc(N)c(C#N)c32)n1)[C@@H]1CCCN1C [II-54],0.3,531
C[C@H](Oc1cc(N2CCC[C@H](O)C2)nc(-c2noc3c2CCC[C@@]32CCCc3sc(N)c(C#N)c32)n1)[C@@H]1CCCN1C [II-57],0.5,500
CO[C@@H]1C[C@@H]([C@H](C)Oc2cc(-n3ccnc3)nc(-c3noc4c3CCC[C@@]43CCCc4sc(N)c(C#N)c43)n2)N(C)C1 [II-58],0.31,113
C[C@H](Oc1cc(N2CCC[C@@H](O)C2)nc(-c2noc3c2CCC[C@@]32CCCc3sc(N)c(C#N)c32)n1)[C@@H]1CCCN1C [II-59],0.64,72
C[C@H](Oc1cc(N2CCOC3(CC3)C2)nc(-c2noc3c2CCC[C@@]32CCCc3sc(N)c(C#N)c32)n1)[C@@H]1CCCN1C [II-61],0.26,276
CO[C@@H]1C[C@@H]([C@H](C)Oc2cc(-c3cnn(C)n3)nc(-c3noc4c3CCC[C@@]43CCCc4sc(N)c(C#N)c43)n2)N(C)C1 [II-62],0.18,2320
C[C@H](Oc1cc(N2CCNC2=O)nc(-c2noc3c2CCC[C@@]32CCCc3sc(N)c(C#N)c32)n1)[C@@H]1CCCN1C [II-64],0.23,96
C[C@H](Oc1cc(-n2cnc3cccnc32)nc(-c2noc3c2CCC[C@@]32CCCc3sc(N)c(C#N)c32)n1)[C@@H]1CCCN1C [II-65],0.03,289
